{"source": "patent US7932031B2", "about": "“Methods for determining sensitivity to microtubule-stabilizing agents comprising ixabepilone by measuring the level of estrogen receptor 1” (Bristol-Myers Squibb Company, priority 2004, dated 2011)", "system": "invasive stage IIA-IIIB breast adenocarcinoma", "test": "CA163-080 exploratory genomic phase II study, ixabepilone as neoadjuvant treatment, pathologic complete response (Sataloff classification)", "format": "in vivo, human", "details": "breast cancer patients, 40 mg/m^2 3-hour infusion on Day 1, up to four 21-day cycles", "protocol": "CA163-080 is an exploratory genomic phase II study that was conducted in breast cancer patients who received ixabepilone as a neoadjuvant treatment. The primary objective of this study was to identify predictive markers of response to ixabepilone through gene expression profiling of pre-treatment breast cancer biopsies. Patients with invasive stage IIA-IIIB breast adenocarcinoma (tumor size≧3 cm diameter) received 40 mg/m^2 ixabepilone as a 3-hour infusion on Day 1 for up to four 21-day cycles, followed by surgery within 3-4 weeks of completion of chemotherapy. A total of 164 patients were enrolled in this study. Biopsies for gene expression analysis were obtained both pre- and post-treatment. […]\nPathological response was assessed using the Sataloff classification system (D. Sataloff et al., J. Am. Coll. Surg., 180(3):297-306 (1995)) and used as an end point for the pharmacogenomic analysis. The pathologic response was evaluated in the primary tumor site at the end of treatment and prior to surgery by assessing histologic changes compared with baseline as following: At the primary tumor site, cellular modifications were evaluated in both the infiltrating tumoral component and in the possible ductal component, to determine viable residual infiltrating component (% of total tumoral mass); residual ductal component (% of total tumoral mass); the mitotic index. […]"}
{"smiles": "C/C(=C\\c1csc(C)n1)[C@@H]1C[C@@H]2O[C@]2(C)CCC[C@H](C)[C@H](O)[C@@H](C)C(=O)C(C)(C)[C@@H](O)CC(=O)N1", "note": "[ixabepilone]", "values": [{"measurement": "pCR response rate", "setting": "the other sites (excluding Russian sites 16, 24 and 25)", "value": 19.8, "unit": "%"}, {"measurement": "pCR response rate", "setting": "tumors from the three Russian sites (16, 24 and 25)", "value": 17.2, "unit": "%"}]}
